In the experiment the target is canine TRPM8 (Canis lupus familiaris, UniProt Q1A7N1). As to the kind of experiment: In Vitro Canine TRPM8 Functional Assay (Ca2+ fluorescence, icilin activation). The format is cell-based. The following applies: for IC50: read-out: IC50. The essentials: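 Cells (HEK293, stable canine TRPM8) are seeded 24 h before assay. They are then dye-loaded with Calcium 3 at 37 °C followed by room temperature. Compound is added and monitored for 5 min, after which icilin (~80% maximal response) is added.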
canine TRPM8, sequence (Q1A7N1 1-1104): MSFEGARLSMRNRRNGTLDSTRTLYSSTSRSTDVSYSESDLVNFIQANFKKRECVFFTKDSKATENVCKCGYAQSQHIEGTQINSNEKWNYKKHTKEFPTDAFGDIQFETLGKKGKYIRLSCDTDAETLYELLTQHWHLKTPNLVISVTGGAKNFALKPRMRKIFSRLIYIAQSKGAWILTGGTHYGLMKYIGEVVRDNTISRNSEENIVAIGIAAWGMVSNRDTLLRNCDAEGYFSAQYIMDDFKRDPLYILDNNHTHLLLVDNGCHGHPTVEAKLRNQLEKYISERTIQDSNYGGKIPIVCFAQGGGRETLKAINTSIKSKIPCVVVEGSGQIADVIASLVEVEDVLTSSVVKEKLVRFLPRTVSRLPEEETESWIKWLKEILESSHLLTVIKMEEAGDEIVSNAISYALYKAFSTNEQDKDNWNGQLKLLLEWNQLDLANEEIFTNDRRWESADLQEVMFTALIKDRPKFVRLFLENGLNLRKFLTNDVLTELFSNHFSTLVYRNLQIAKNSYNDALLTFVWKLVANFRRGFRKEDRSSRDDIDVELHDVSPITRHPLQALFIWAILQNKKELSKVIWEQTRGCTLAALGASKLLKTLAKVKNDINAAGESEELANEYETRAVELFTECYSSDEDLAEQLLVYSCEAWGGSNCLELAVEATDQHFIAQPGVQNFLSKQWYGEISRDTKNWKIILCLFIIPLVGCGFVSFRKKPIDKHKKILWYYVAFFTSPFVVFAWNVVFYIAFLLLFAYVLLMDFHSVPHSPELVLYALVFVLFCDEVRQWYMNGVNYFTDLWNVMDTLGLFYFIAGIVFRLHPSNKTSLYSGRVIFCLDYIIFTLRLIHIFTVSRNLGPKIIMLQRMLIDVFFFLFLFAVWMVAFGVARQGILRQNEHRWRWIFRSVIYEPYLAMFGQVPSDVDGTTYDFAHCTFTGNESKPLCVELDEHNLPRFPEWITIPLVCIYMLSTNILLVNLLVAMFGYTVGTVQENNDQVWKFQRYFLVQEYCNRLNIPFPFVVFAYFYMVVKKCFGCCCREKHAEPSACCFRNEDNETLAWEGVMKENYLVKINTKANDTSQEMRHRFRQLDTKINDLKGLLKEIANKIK

[1] abbreviates: HEK293 cells stably expressing canine TRPM8, icilin activation, eight-point dose-response.
Where [2] appears, read: compound at 0.2 μM, canine TRPM8, icilin activation, read-out: % Inh @ 0.2.
Where [3] appears, read: 0.2 μM compound, HEK293 cells stably expressing canine TRPM8, icilin activation, read-out: % Inh @ 0.2.
Setting [4] is: HEK293 cells stably expressing canine TRPM8, icilin activation, average of two or more determinations.

Where two headings read alike, the source gives them in different places.

As a reminder, the IC50 is the concentration that gives 50% inhibition. In the case of `Cc1c(N(Cc2cccc(OC(F)(F)F)c2)S(=O)(=O)C2CC2)sc2ccccc12` [Compound 770, N-(3-Methyl-benzo[b]thiophen-2-yl)-N-(3-trifluoromethoxy-benzyl)-cyclopropanesulfonamide], the IC50 under setting [1] was 7.2 nM. In addition, the inhibition at 0.2 µM under setting [2] worked out at 95%.
For `Cc1c(N(Cc2ccc(F)c(C(F)(F)F)c2)S(=O)(=O)CCCCBr)sc2ccccc12` [Compound 771, N-(4-Fluoro-3-trifluoromethyl-benzyl)-N-(3-methyl-benzo[b]thiophen-2-yl)-4-bromo-butane-1-sulfonamide], the IC50 under setting [1] worked out at 7.2 nM. In addition, under setting [2], the inhibition at 0.2 µM is 96%.
The like results for `CC(=O)c1c(N(Cc2ccc(OC(F)(F)F)cc2)S(=O)(=O)c2ccc(C#N)cc2)sc2ccccc12` [Compound 772, N-(3-Acetyl-benzo[b]thiophen-2-yl)-N-(4-trifluoromethoxy-benzyl)-4-cyano-benzenesulfonamide] were, in that order, 5.7 nM and 95%.
On to `CC(=O)c1c(N(CCCCC(F)(F)F)S(=O)(=O)c2ccc(C#N)cc2)sc2ccccc12` [Compound 773, N-(3-Acetyl-benzo[b]thiophen-2-yl)-N-(5,5,5-trifluoro-pentyl)-4-cyano-benzenesulfonamide], for which the IC50 under setting [1] was 16.7 nM. Under setting [2], the inhibition at 0.2 µM worked out at 94%.
Regarding `Cc1c(N(Cc2ccc(OC(F)(F)F)cc2)S(=O)(=O)c2ccc(C(=O)O)c(F)c2)sc2ccccc12` [Compound 774, N-(3-Methyl-benzo[b]thiophen-2-yl)-N-(4-trifluoromethoxy-benzyl)-3-fluoro-4-carboxy-benzenesulfonamide], under setting [1], the IC50 is 1.3 nM. In addition, the inhibition at 0.2 µM under setting [2] amounted to 95%.
With `Cc1c(N(Cc2ccc(F)c(C(F)(F)F)c2)S(=O)(=O)c2ccc(C(=O)O)c(F)c2)sc2ccccc12` [Compound 775, N-(3-Methyl-benzo[b]thiophen-2-yl)-N-(4-fluoro-3-trifluoromethyl-benzyl)-3-fluoro-4-carboxy-benzenesulfonamide], the IC50 under setting [1] came to 1.6 nM. Further, under setting [2], the inhibition at 0.2 µM is 95%.
As to `CCS(=O)(=O)N(Cc1cccc(OC)c1F)c1sc2ccccc2c1C(C)(C)O` [Compound 776, N-(2-Fluoro-3-methoxy-benzyl)-N-[3-(1-hydroxy-1-methyl-ethyl)-benzo[b]thiophen-2-yl]-ethanesulfonamide], under setting [1], the IC50 came out at 6.7 nM. For the same molecule, the inhibition at 0.2 µM under setting [2] came out at 95%.
For the molecule `Cc1c(N(CCC2CC2)S(=O)(=O)c2ccc(C(=O)N3CCN(C)CC3)cc2)sc2ccccc12` [Compound 777, N-(2-Cyclopropyl-ethyl)-N-(3-methyl-benzo[b]thiophen-2-yl)-4-(4-methyl-piperazine-1-carbonyl)-benzenesulfonamide], the inhibition at 0.2 µM under setting [2] turned out to be 56%.
Consider `Cc1c(N(Cc2cccc(OC(F)(F)F)c2)S(=O)(=O)CCCn2ccnc2)sc2ccccc12` [Compound 778, N-(3-Methyl-benzo[b]thiophen-2-yl)-N-(3-trifluoromethoxy-benzyl)-3-imidazol-1-yl-propane-1-sulfonamide], for which, under setting [1], the half-maximal inhibitory concentration (IC50) was 107 nM. Besides, the inhibition at 0.2 µM under setting [2] came out at 87%.
Turning to `Cc1c(N(Cc2ccc(F)c(C(F)(F)F)c2)S(=O)(=O)CCCCn2ccnc2)sc2ccccc12` [Compound 779, N-(4-Fluoro-3-trifluoromethyl-benzyl)-N-(3-methyl-benzo[b]thiophen-2-yl)-4-(imidazol-1-yl)-butane-1-sulfonamide], the IC50 under setting [1] is 48.7 nM. In addition, the inhibition at 0.2 µM under setting [2] was found to be 79%.
As to `CS(=O)(=O)Nc1ccc(S(=O)(=O)N(Cc2ccc(F)c(C(F)(F)F)c2)c2sc3ccccc3c2Cl)c(O)c1` [Compound 780, N-(3-Chloro-benzo[b]thiophen-2-yl)-N-(4-fluoro-3-trifluoromethyl-benzyl)-2-hydroxy-4-methanesulfonylamino-benzenesulfonamide], the IC50 under setting [1] amounted to 145 nM. In addition, the inhibition at 0.2 µM under setting [2] turned out to be 72%.
In the case of `CC(C)(O)c1c(N(Cc2ccc(OC(F)(F)F)cc2)S(=O)(=O)c2ccc(C(=O)[O-])cc2)sc2ccccc12.[Na+]` [Compound 781, Sodium, N-(3-(1-Hydroxy-1-methyl-ethyl)-benzo[b]thiophen-2-yl)-N-(4-trifluoromethoxy)benzyl-4-carboxy-benzenesulfonamide], under setting [1], the IC50 was determined as 3 nM. Besides, the “% Inh @ 0.2 (μM)” value (compound at 0.2 μM, canine TRPM8, icilin activation) came out at 102%.
As to `Cc1c(N(CCC2CC2)S(=O)(=O)c2ccc(C(=O)N[C@H]3CCNC3)cc2)sc2ccccc12` [Compound 782, (S)-4-[(2-Cyclopropyl-ethyl)-(3-methyl-benzo[b]thiophen-2-yl)-sulfamoyl]-N-pyrrolidin-3-yl-benzamide], the inhibition at 0.2 µM under setting [2] is 33%.
As for `Cc1c(N(CCC2CC2)S(=O)(=O)c2ccc(C(=O)N[C@@H]3CCNC3)cc2)sc2ccccc12` [Compound 783, (R)-4-[(2-Cyclopropyl-ethyl)-(3-methyl-benzo[b]thiophen-2-yl)-sulfamoyl]-N-pyrrolidin-3-yl-benzamide], the inhibition at 0.2 µM under setting [2] stood at 38%.
For the molecule `Cc1c(N(Cc2ccc(F)c(C(F)(F)F)c2)S(=O)(=O)c2ccc(-c3nsc(=O)[nH]3)cc2)sc2ccccc12` [Compound 784, N-(3-Methyl-benzo[b]thiophen-2-yl)-N-(4-fluoro-3-trifluoromethyl-benzyl)-4-(5-oxo-4,5-dihydro-[1,2,4]thiadiazol-3-yl)-benzenesulfonamide], the IC50 under setting [1] amounted to 3.3 nM. Also, the inhibition at 0.2 µM under setting [2] was 102%.
The like results for `Cc1c(N(Cc2ccc(OC(F)(F)F)cc2)S(=O)(=O)c2ccc(-c3nnn[nH]3)cc2)sc2ccccc12` [Compound 785, N-(3-Methyl-benzo[b]thiophen-2-yl)-N-(4-trifluoromethoxy-benzyl)-4-(1H-tetrazol-5-yl)-benzenesulfonamide] were, in that order, 2.2 nM and 102%.
As for `Cc1c(N(CCCCC(F)(F)F)S(=O)(=O)c2ccc(N(C)C)nc2)sc2ccccc12` [Compound 787], the half-maximal inhibitory concentration (IC50) under setting [1] was 14.9 nM. The inhibition at 0.2 µM under setting [2] turned out to be 102%.
`Cc1c(N(CCCCC(F)(F)F)S(=O)(=O)c2cnccc2N2CCOCC2)sc2ccccc12` [Compound 788, N-(3-Methyl-benzo[b]thiophen-2-yl)-N-(5,5,5-trifluoro-pentyl)-4-morpholino-3-pyridyl-sulfonamide]: the IC50 under setting [1] is 25.9 nM.
For the molecule `Cc1c(N(CCCCC(F)(F)F)S(=O)(=O)c2ccc(N3CCOCC3)nc2)sc2ccccc12` [Compound 788], under setting [2], the inhibition at 0.2 µM is 100%.
In the case of `Cc1c(N(Cc2ccc(OC(F)(F)F)cc2)S(=O)(=O)c2ccc(N(C)C)nc2)sc2ccccc12` [Compound 789], the IC50 under setting [1] was found to be 11.7 nM. Moreover, under setting [2], the inhibition at 0.2 µM turned out to be 102%.
In the case of `Cc1c(N(Cc2ccc(OC(F)(F)F)cc2)S(=O)(=O)c2ccc(N3CCOCC3)nc2)sc2ccccc12` [Compound 790], the IC50 under setting [1] is 22 nM. The inhibition at 0.2 µM under setting [2] was 101%.
In the case of `COC(=O)CS(=O)(=O)N(Cc1ccc(F)c(C(F)(F)F)c1)c1sc2ccccc2c1C` [Compound 791, N-(4-Fluoro-3-trifluoromethyl-benzyl)-N-(3-methyl-benzo[b]thiophen-2-yl)-carbomethoxy-methanesulfonamide], the IC50 under setting [1] came out at 23.1 nM. Under setting [2], the inhibition at 0.2 µM was 95%.
With `Cc1c(N(Cc2ccc(F)c(C(F)(F)F)c2)S(=O)(=O)CC(=O)O)sc2ccccc12` [Compound 792, N-(4-Fluoro-3-trifluoromethyl-benzyl)-N-(3-methyl-benzo[b]thiophen-2-yl)-carboxy-methanesulfonamide], the inhibition at 0.2 µM under setting [2] was found to be 23%.
On to `Cc1c(N(Cc2ccc(F)c(C(F)(F)F)c2)S(=O)(=O)CCO)sc2ccccc12` [Compound 793, N-(4-Fluoro-3-trifluoromethyl-benzyl)-N-(3-methyl-benzo[b]thiophen-2-yl)-2-hydroxy-ethanesulfonamide], for which the IC50 under setting [1] came out at 15.5 nM. In addition, the inhibition at 0.2 µM under setting [2] is 102%.
The like results for `COC(=O)CCS(=O)(=O)N(Cc1ccc(OC(F)(F)F)cc1)c1sc2ccccc2c1C` [Compound 794, N-(3-Methyl-benzo[b]thiophen-2-yl)-N-(4-trifluoromethoxy-benzyl)-2-carbomethoxy-ethanesulfonamide] were, in that order, 29.4 nM and 101%.
For the molecule `Cc1c(N(Cc2ccc(OC(F)(F)F)cc2)S(=O)(=O)CCC(=O)O)sc2ccccc12` [Compound 795, N-(3-Methyl-benzo[b]thiophen-2-yl)-N-(4-trifluoromethoxy-benzyl)-2-carboxy-ethanesulfonamide], the inhibition at 0.2 µM under setting [3] is 100%. Under setting [4], the IC50 was found to be 24.6 nM.
The like results for `Cc1c(N(Cc2ccc(OC(F)(F)F)cc2)S(=O)(=O)CCC(C)(C)O)sc2ccccc12` [Compound 796, N-(3-Methyl-benzo[b]thiophen-2-yl)-N-(4-trifluoromethoxy-benzyl)-3-hydroxy-3-methyl-butane-1-sulfonamide] were, in that order, 101% and 24.2 nM.
In the case of `Cc1c(N(Cc2ccc(F)c(C(F)(F)F)c2)S(=O)(=O)CCBr)sc2ccccc12` [Compound 797, N-(4-Fluoro-3-trifluoromethyl-benzyl)-N-(3-methyl-benzo[b]thiophen-2-yl)-2-bromo-ethane-1-sulfonamide], where the note is “HEK293, read-out: % Inh @ 0.2 (μM)”, the inhibition at 0.2 µM was determined as 102%. Moreover, under setting [4], the concentration for half-maximal inhibition (IC50) turned out to be 4.8 nM.
`Cc1c(N(Cc2ccc(OC(F)(F)F)cc2)S(=O)(=O)c2ccc(N(C)C)cc2)sc2ccccc12` [Compound 799, N-(3-Methyl-benzo[b]thiophen-2-yl)-N-(4-trifluoromethoxy-benzyl)-4-dimethylamino-benzenesulfonamide]: the inhibition at 0.2 µM under setting [3] stood at 102%. The IC50 under setting [4] stood at 3.9 nM.

The values are drawn from patent US9434711B2 (Janssen Pharmaceutica, NV, priority 2007, dated 2016).
